Data: patent US20050014675A1, “Cell migration inhibitor” (priority 2001, published 2005)
Structures can show the parent of a compound that is named as a salt. Non-standard residues stand in square brackets, D forms with d. Residues, ends and D or L forms follow the SMILES beside them. No end group written: not given here. dTrp(2-Me) = Cc1[nH]c2ccccc2c1C[C@@H](N)C(=O)O; d2Nal = N[C@H](Cc1ccc2ccccc2c1)C(=O)O

Assays:
Type in all cases: cell-based
[1] = system: human vascular smooth muscle cells; test: PDGF-induced migration of human vascular smooth muscle cells (Boyden's chamber); details: for action on the PDGF-induced migration of vascular smooth muscle cells (summary of Test 1): Test 1, summary statement; for suppressive action on PDGF-induced migration / action on PDGF-induced migration: human vascular smooth muscle cells, FIG. 4; for suppressive action on PDGF-induced migration: compound at 10 nM
Protocol: (§1) Human vascular smooth muscle cells were cultured in SmBM with the additive factors in a culture incubator (37° C., 5% CO2/95% air) and cells at the 5th-9th passage were used in the test. Rabbit vascular smooth muscle cells were obtained by an explant technique from the media of rabbit thoracic aorta and cultured in DMEM with 10% fetal bovine serum; cells at the 5th-7th passage were used in the test.
(§2) Cells that proliferated to confluence were detached with trypsin, washed twice with an additive factor free medium, dispersed in SmBM containing 0.1% fetal bovine serum and prepared to a cell density of 5×10^5 cells/mL. Migration of cells was assayed according to Koyama et al. method (J. Biol. Chem. (1993) 268:13301-13308) using a 48-well Boyden's chamber (Neuro probe). To be more specific, 28 μL of SmBM containing 10 ng/mL of PDGF and 0.1% FBS was placed in the lower chamber and 50 μL of a cell dispersion preliminarily incubated with each assay compound for 10 minutes was placed in the upper chamber. The upper chamber and the lower chamber were separated by a polycarbonate filter (having pores 8 μm in diameter) precoated with type I collagen (Nitta Gelatin Inc.) Since the placement of the cell dispersion, the Boyden's chamber was incubated in a culture incubator (37° C., 5% CO2/95% air) for 4 hours. The cells on the upper side of the filter were scraped off and the cells that had migrated to the lower side of the filter were fixed in methanol and stained with Diff-Quick staining solution (International Reagents Corporation). The filter had been air-dried on a glass slide and sealed with Enteran New. The cells were counted under a high-power microscope (×200) in 4 fields per well and the number of cells that had migrated was averaged to determine the migration activity.
The result of each treated group was represented by the mean±standard deviation for 3 wells. Statistical significance was estimated by one-way ANOVA, if p value was less than 5%, followed by Dunnett method to compare between vehicle-treated group and the others in the presence of a migration inducer. Values of p less than 5% were considered to be significant.

[2] = system: rabbit vascular smooth muscle cells; test: PDGF-induced migration of rabbit vascular smooth muscle cells (Boyden's chamber); details: treatment with 10 nM, FIG. 3
Protocol: as §1
Cells that proliferated to confluence were detached with trypsin, washed twice with an additive factor free medium, dispersed in SmBM containing 0.1% fetal bovine serum and prepared to a cell density of 5×10^5 cells/mL. Migration of cells was assayed according to Koyama et al. method (J. Biol. Chem. (1993) 268:13301-13308) using a 48-well Boyden's chamber (Neuro probe). To be more specific, 28 μL of SmBM containing 10 ng/mL of PDGF and 0.1% FBS was placed in the lower chamber and 50 μL of a cell dispersion preliminarily incubated with each assay compound for 10 minutes was placed in the upper chamber. […] The cells were counted under a high-power microscope (×200) in 4 fields per well and the number of cells that had migrated was averaged to determine the migration activity. […]

Human mesangial cells = test: PDGF-induced migration of human mesangial cells (Boyden's chamber)
Protocol: as §2, with “activity. […]” for “activity.”

Row | Molecule | action on the PDGF-induced migration of vascular smooth muscle cells (summary of Test 1) [1] | suppressive action on PDGF-induced migration [1] | other results
1 | CNC(=O)[C@@H](Cc1ccccc1)N(C)C(=O)[C@@H](Cc1ccc2ccccc2c1)N(C)C(=O)/C=C/CC(C)(C)N [NN-703, tabimorelin] | potent inhibitory action | significant suppressive action | 
2 | C[C@H](NC(=O)[C@@H](Cc1ccc2ccccc2c1)NC(=O)[C@@H](C)N)C(=O)N[C@@H](Cc1c[nH]c2ccccc12)C(=O)N[C@H](Cc1ccccc1)C(=O)N[C@@H](CCCCN)C(N)=O [KP-102, Pralmorelin dihydrochloride] (H-[dA][d2Nal]AW[dF]K-NH2) | potent inhibitory action |  | suppressive action on PDGF-induced migration [2]: significant suppressive action; concentration with significant suppression of PDGF-induced migration (Human mesangial cells; FIG. 8): ≥ 0.1 nM
3 | GH: recombinant human growth hormone (Wako Pure Chemical Industries, Ltd.) | no action |  | action on PDGF-induced migration ([1]; at 0.1 μg/mL): no action
4 | CC(C)(N)C(=O)N[C@H](COCc1ccccc1)C(=O)N1CCC2(CC1)CN(S(C)(=O)=O)c1ccccc12 [MK-0677, ibutamorelin methanesulfonate] | potent inhibitory action | significant suppressive action | 
5 | GHRH: human-type growth-hormone releasing hormone (Peptide Institute, Inc.) (YADAIFTNSYRKVLGQLSARKLLQDIMSRQQGESNQERGARARL; ends and bridges not checked; UniProt P01286 32-75, looked up) | no action |  | action on PDGF-induced migration ([1]; at 10 nM): no action
6 | Cc1[nH]c2ccccc2c1C[C@@H](NC(=O)[C@@H](N)Cc1cnc[nH]1)C(=O)N[C@@H](C)C(=O)N[C@@H](Cc1c[nH]c2ccccc12)C(=O)N[C@H](Cc1ccccc1)C(=O)N[C@@H](CCCCN)C(N)=O [hexarelin] (H-H[dTrp(2-Me)]AW[dF]K-NH2) | potent inhibitory action | significant suppressive action | 
7 | GHRP-6 | potent inhibitory action | significant suppressive action | 
8 | ghrelin | potent inhibitory action |  | suppressive action on PDGF-induced migration [2]: significant suppressive action; suppression of PDGF-induced migration (Human mesangial cells; FIG. 9): This action was also verified
9 | CN1N=C2CCN(C(=O)[C@@H](COCc3ccccc3)NC(=O)C(C)(C)N)C[C@@]2(Cc2ccccc2)C1=O [CP-424,391, capromorelin] | potent inhibitory action | significant suppressive action | 
